Legend:
Assay type in all cases: in vivo
[1] = system: blackgrass (Alopecurus myosuroides); test: Postemergence herbicidal activity, blackgrass; details: 15.6 ppm, foliar spray, visual after 2 weeks; 0 no injury, 100 complete kill
How it was run: (§1)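 Injury rated visually at 2 weeks, 0 (none) to 100% (complete kill), relative to carrier-sprayed controls. Foliar spray applied to 7–21-day-old seedlings at first or second true leaf, with rates in ppm (1 ppm ≈ 1 g/ha) in an aqueous acetone/DMSO/crop oil/surfactant mix.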

[2] = system: cocklebur (Xanthium strumarium); test: Preemergence herbicidal activity, cocklebur; details: soil spray, visual after 3 weeks, 0 no injury, 100 complete kill or no germination
How it was run: (§2)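 Ratings are percent injury assessed visually three weeks after treatment, comparing emerged treated plants with untreated ones; 0 indicates no effect and 100 indicates plants killed or not germinated. Compound was sprayed on the soil of seeded pots at up to 4.48 kg/ha.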

[3] = system: velvetleaf (Abutilion theophrasti); test: Postemergence herbicidal activity, velvetleaf; details: 15.6 ppm, foliar spray, visual after 2 weeks; 0 no injury, 100 complete kill
How it was run: as §1

[4] = system: velvetleaf (Abutilion theophrasti); test: Preemergence herbicidal activity, velvetleaf; details: soil spray, visual after 3 weeks, 0 no injury, 100 complete kill or no germination
How it was run: as §2

[5] = system: Rox orange sorghum (Sorghum bicolor); test: Preemergence herbicidal activity, Rox orange sorghum; details: soil spray, visual after 3 weeks, 0 no injury, 100 complete kill or no germination
How it was run: as §2

[6] = system: blackgrass (Alopecurus myosuroides); test: Preemergence herbicidal activity, blackgrass; details: soil spray, visual after 3 weeks, 0 no injury, 100 complete kill or no germination
How it was run: as §2

[7] = system: giant foxtail (Setaria faberi); test: Preemergence herbicidal activity, giant foxtail; details: soil spray, visual after 3 weeks, 0 no injury, 100 complete kill or no germination
How it was run: as §2

[8] = system: barnyardgrass (Echinochloa crus-galli); test: Preemergence herbicidal activity, barnyardgrass; details: soil spray, visual after 3 weeks, 0 no injury, 100 complete kill or no germination
How it was run: as §2

[9] = system: chickweed (Stellaria media); test: Postemergence herbicidal activity, chickweed; details: 15.6 ppm, foliar spray, visual after 2 weeks; 0 no injury, 100 complete kill
How it was run: as §1

[10] = system: Rox orange sorghum (Sorghum bicolor); test: Postemergence herbicidal activity, Rox orange sorghum; details: 15.6 ppm, foliar spray, visual after 2 weeks; 0 no injury, 100 complete kill
How it was run: as §1

[11] = system: lambsquarters (Chenopodium album); test: Postemergence herbicidal activity, lambsquarters; details: 15.6 ppm, foliar spray, visual after 2 weeks; 0 no injury, 100 complete kill
How it was run: as §1

wild oats (Avena fatua) [12] = test: Postemergence herbicidal activity, wild oats; details: 15.6 ppm, foliar spray, visual after 2 weeks; 0 no injury, 100 complete kill
How it was run: as §1

[13] = system: wild poinsettia (Euphorbia heterophylla); test: Preemergence herbicidal activity, wild poinsettia; details: soil spray, visual after 3 weeks, 0 no injury, 100 complete kill or no germination
How it was run: as §2

[14] = system: lambsquarters (Chenopodium album); test: Preemergence herbicidal activity, lambsquarters; details: soil spray, visual after 3 weeks, 0 no injury, 100 complete kill or no germination
How it was run: as §2

[15] = system: cocklebur (Xanthium strumarium); test: Postemergence herbicidal activity, cocklebur; details: 15.6 ppm, foliar spray, visual after 2 weeks; 0 no injury, 100 complete kill
How it was run: as §1

[16] = system: morningglory (Ipomoea hederacea); test: Preemergence herbicidal activity, morningglory; details: soil spray, visual after 3 weeks, 0 no injury, 100 complete kill or no germination
How it was run: as §2

[17] = system: pigweed (Amaranthus retroflexus); test: Postemergence herbicidal activity, pigweed; details: 15.6 ppm, foliar spray, visual after 2 weeks; 0 no injury, 100 complete kill
How it was run: as §1

[18] = system: crabgrass (Digitaria sanguinalis); test: Preemergence herbicidal activity, crabgrass; details: soil spray, visual after 3 weeks, 0 no injury, 100 complete kill or no germination
How it was run: as §2

[19] = system: pigweed (Amaranthus retroflexus); test: Preemergence herbicidal activity, pigweed; details: soil spray, visual after 3 weeks, 0 no injury, 100 complete kill or no germination
How it was run: as §2

viola (Viola tricolor) = test: Postemergence herbicidal activity, viola; details: 15.6 ppm, foliar spray, visual after 2 weeks; 0 no injury, 100 complete kill
How it was run: as §1

wild oats (Avena fatua) [20] = test: Preemergence herbicidal activity, wild oats; details: soil spray, visual after 3 weeks, 0 no injury, 100 complete kill or no germination
How it was run: as §2

[21] = system: wild buckwheat (Polygonum convolvulus); test: Postemergence herbicidal activity, wild buckwheat; details: 15.6 ppm, foliar spray, visual after 2 weeks; 0 no injury, 100 complete kill
How it was run: as §1

[22] = system: giant foxtail (Setaria faberi); test: Postemergence herbicidal activity, giant foxtail; details: 15.6 ppm, foliar spray, visual after 2 weeks; 0 no injury, 100 complete kill
How it was run: as §1

[23] = system: morningglory (Ipomoea hederacea); test: Postemergence herbicidal activity, morningglory; details: 15.6 ppm, foliar spray, visual after 2 weeks; 0 no injury, 100 complete kill
How it was run: as §1

Row | SMILES | ALOMY postemergence injury score 0-100 [1] [%] | XANST preemergence injury score 0-100 ([2]; 8.8 g/Ha) [%] | ABUTH postemergence injury score 0-100 [3] [%] | ABUTH preemergence injury score 0-100 ([4]; 8.8 g/Ha) [%] | SORBI preemergence injury score 0-100 ([5]; 8.8 g/Ha) [%] | ALOMY preemergence injury score 0-100 ([6]; 8.8 g/Ha) [%] | SETFA preemergence injury score 0-100 ([7]; 8.8 g/Ha) [%] | ECHCG preemergence injury score 0-100 ([8]; 8.8 g/Ha) [%] | STEME postemergence injury score 0-100 [9] [%] | SORBI postemergence injury score 0-100 [10] [%] | CHEAL postemergence injury score 0-100 [11] [%] | AVEFA postemergence injury score 0-100 (wild oats (Avena fatua) [12]) [%] | EPHHL preemergence injury score 0-100 ([13]; 8.8 g/Ha) [%] | CHEAL preemergence injury score 0-100 ([14]; 8.8 g/Ha) [%] | XANST postemergence injury score 0-100 [15] [%] | AMARE postemergence injury score 0-100 [17] [%] | VIOTR postemergence injury score 0-100 (viola (Viola tricolor)) [%] | POLCO postemergence injury score 0-100 [21] [%] | SETFA postemergence injury score 0-100 [22] [%] | IPOHE postemergence injury score 0-100 [23] [%] | further results
1 | COc1cc(OC)n2nc(NS(=O)(=O)c3cscc3OC)nc2n1 [Compound 15] | 80 | 60 | 70 | 90 | 100 | 100 | 100 | 80 | 90 | 100 | 90 | 95 | 90 | 98 | 90 | 90 | 70 | 80 | 100 | 70 | IPOHE preemergence injury score 0-100 ([16]; 8.8 g/Ha): 70%; DIGSA preemergence injury score 0-100 ([18]; 8.8 g/Ha): 100%; AMARE preemergence injury score 0-100 ([19]; 8.8 g/Ha): 85%; AVEFA preemergence injury score 0-100 (wild oats (Avena fatua) [20]; 8.8 g/Ha): 100%
2 | COc1cc(OC)n2nc(NS(=O)(=O)c3c(OC)csc3Cl)nc2n1 [Compound 19] | 70 | 50 | 80 | 95 | 95 | 95 | 100 | 95 | 95 | 100 | 100 | 100 | 90 | 90 | 95 | 100 | 100 | 95 | 100 | 80 | IPOHE preemergence injury score 0-100 ([16]; 8.8 g/Ha): 90%; DIGSA preemergence injury score 0-100 ([18]; 8.8 g/Ha): 100%; AMARE preemergence injury score 0-100 ([19]; 8.8 g/Ha): 75%; AVEFA preemergence injury score 0-100 (wild oats (Avena fatua) [20]; 8.8 g/Ha): 100%
3 | CCOc1cscc1S(=O)(=O)Nc1nc2c(OC)ccc(OC)n2n1 [Compound 11] | 75 |  | 85 |  |  |  |  |  | 80 | 90 | 95 | 85 |  |  | 90 | 100 | 75 | 80 | 100 | 70 | XANST preemergence injury score 0-100 ([2]; 4.4 g/Ha): 50%; ABUTH preemergence injury score 0-100 ([4]; 4.4 g/Ha): 80%; SORBI preemergence injury score 0-100 ([5]; 4.4 g/Ha): 98%; ALOMY preemergence injury score 0-100 ([6]; 4.4 g/Ha): 100%; SETFA preemergence injury score 0-100 ([7]; 4.4 g/Ha): 100%; ECHCG preemergence injury score 0-100 ([8]; 4.4 g/Ha): 10%; EPHHL preemergence injury score 0-100 ([13]; 4.4 g/Ha): 50%; CHEAL preemergence injury score 0-100 ([14]; 4.4 g/Ha): 95%; IPOHE preemergence injury score 0-100 ([16]; 4.4 g/Ha): 30%; DIGSA preemergence injury score 0-100 ([18]; 4.4 g/Ha): 40%; AMARE preemergence injury score 0-100 ([19]; 4.4 g/Ha): 90%; AVEFA preemergence injury score 0-100 (wild oats (Avena fatua) [20]; 4.4 g/Ha): 70%
